Values of other authors, collected in patent US20060275243A1, “Cosmetic or therapeutic combination preparation with theanine” (ROVI GmbH & Co. Kosmetische Rohstoffe KG, priority 2005, published 2006).

Settings: investigations referred to in the description

For `CCNC(=O)CC[C@H](N)C(=O)O` [theanine], the “effect on the cramp-triggering effect of caffeine” value is given as “can inhibit the cramp-triggering effect of caffeine”.
